From paper PMC12505902, “Inhibitors of trehalose-6-phosphate synthase activity in fungal pathogens compromise thermal tolerance pathways” (mBio, 2025)

Columns and labels:
[1] = system: trehalose content of C. neoformans; test: Trehalose measurement (colorimetric glucose assay after trehalase); assay type: cell-based; conditions: 37°C, sublethal dose (0.5 mM 4456dh), P < 0.05; dose-dependent
Description: Fig 5 4456dh treatment results in reduced trehalose accumulation and a decrease in Tps1-dependent virulence factors. Trehalose accumulation measurements for C. albicans (A) and C. neoformans (B) cultured at indicated temperatures in the absence or presence of 0.5 mM 4456dh. Trehalose was measured using a colorimetric glucose assay after treatment of cultures with trehalase. Statistical comparisons were done with a one-way analysis of variance (ANOVA) analysis followed by a post hoc Tukey’s test. Error bars represent SE. (C) C. albicans WT strain SC5314 cells were treated with 0.5 mM, 1.0 mM, and 5 mM 4456dh. […] Cells were harvested, stained in India Ink, and analyzed using differential interference contrast imaging. […]
(§1) 124 technical replicates. Growth, as determined by a reading of absorbance at 600 nm, was
125 normalized to untreated controls and was corrected for the absorbance of 4456dh in the YPD […]
(§2) 129 overnight cultures was quantified by measuring the OD600 and corrected for the background
130 absorbance of the medium. Antifungal potency for 4456dh was assessed by minimum inhibitory […]
(§3) 137 replicates. Growth, as determined by a reading of absorbance at 600 nm, was normalized to
(§4) 138 untreated controls and was corrected for the absorbance of 4456dh in the YPD medium. […]
(§5) 139 minimum inhibitory concentration causing 80% growth reduction, or MIC80, was determined based […]

[2] = system: C. deneoformans; test: Zone of inhibition assay; assay type: cell-based
Description: To test this hypothesis, we performed zone of inhibition studies in the C. deneoformans background (Fig. S8A).
123 hours. All dose- response assays were performed in biological triplicate with a minimum of three
as §1
125 normalized to untreated controls and was corrected for the absorbance of 4456dh in the YPD
126 medium. Growth was plotted as a heat map using Excel.
127 Wild-t y pe C. neoformans strains H99, wild-type C. deneoformans JEC21 and wild- t y pe C. gattii
128 R265 were cultured overnight in YPD (yeast-peptone- dextrose) medium at 30 °C. Growth of the
as §2
130 absorbance of the medium. Antifungal potency for 4456dh was assessed by minimum inhibitory
131 concentration (MIC) dose-response assays performed under standard Clinical and Lab Standards […]
as §3, §4, §5
149 mM 4456dh. The OD600 was determined followed by dilution of overnight cultures to an equivalent […]
157 Optical density (OD600) was determined with an Infinite PRO plate reader ( Tecan). […]

`Cn1cc(-c2csc(NC(=O)Cc3ccccn3)n2)cn1` [Compound 4456dh] was tested, and the change in trehalose [1] was “significant decrease in trehalose”, the zone of inhibition ([2]; C. deneoformans tps1Δ cells, 30°C) was “diffuse yet visible zone of inhibition” and the zone of inhibition ([2]; C. deneoformans wild-type (JEC21, JEC20), 37°C) was “distinct zone of inhibition”.
